Results taken from US12552753B2, “Methods and compositions for targeting Tregs using CCR8 inhibitors” (Nanjing Immunophage Biomedical Co., Ltd., priority 2020, dated 2026).
Counter-ions that a name gives are not always drawn.

What follows are compounds tested against CCR8 (Homo sapiens, UniProt P51685) (assay: Tango assay (Tango-CCR8-Gal4-CHO-K1 cells, CCL1-stimulated, ONE-Glo luminescence)). Conditions: Tango Assay IC50, Inhibition of CCR8 Tango cell in vitro.
Chain of CCR8 (P51685 whole entry, the tested form may be a part): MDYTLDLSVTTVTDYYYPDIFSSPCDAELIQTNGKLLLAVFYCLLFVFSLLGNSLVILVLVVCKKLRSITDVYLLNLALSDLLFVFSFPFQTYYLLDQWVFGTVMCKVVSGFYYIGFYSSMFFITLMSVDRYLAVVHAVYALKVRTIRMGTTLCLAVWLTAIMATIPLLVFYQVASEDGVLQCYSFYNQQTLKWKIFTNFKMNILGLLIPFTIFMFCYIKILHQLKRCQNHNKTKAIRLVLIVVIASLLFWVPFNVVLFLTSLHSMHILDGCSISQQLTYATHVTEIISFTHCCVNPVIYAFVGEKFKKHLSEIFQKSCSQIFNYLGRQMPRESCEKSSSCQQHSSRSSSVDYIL

Row | SMILES | IC50 [nM]
1 | Cc1cc(S(=O)(=O)N(C)[C@H](C)C2CCNCC2)ccc1NC(=O)c1ccccc1C [Compound 237A, (R)-2-methyl-N-(2-methyl-4-(N-methyl-N-(1-(piperidin-4-yl)ethyl)sulfamoyl)phenyl)benzamide hydrochloride] | > 100000
2 | CC(NS(=O)(=O)c1cccc(N2CCC(C(=O)O)C2)c1)C1CCCCC1 (stereo not drawn) [Compound 154, 1-(3-(N-(1-cyclohexylethyl)sulfam-oyl)phenyl)pyrrolidine-3-carboxylic acid] | > 10000
3 | CCCC(=O)N1CCCC1C(=O)NS(=O)(=O)c1ccc(NC(=O)c2ccccc2C)c2ccccc12 (stereo not drawn) [Compound 7, 1-butyryl-N-((4-(2-methylbenzamido)naph-thalen-1-yl)sulfonyl)pyrrolidine-2-carboxamide] | > 10000
4 | Cc1ccccc1C(=O)Nc1ccc(S(=O)(=O)NC(C)C2CCCN(C(=O)CN)C2)c2ccccc12 (single isomer, unassigned) [Compound 156A, N-(4-(N-(1-(1-(2-ammoacetyl)piperidin-3-yl)ethyl)sulfamoyl)naph-thalen-1-yl)-2-methylbenzamide] | 85
5 | CC(=O)N1CCC(C(C)NS(=O)(=O)c2ccc(NC(=O)c3ccccc3C)c3ccccc23)CC1 (stereo not drawn) [Compound 62, N-(4-(N-(1-(1-acetylpiperidin-4-yl)ethyl)sulfamoyl)naph-thalen-1-yl)-2-methylbenzamide] | 705
6 | CC(=O)N1CCC(NS(=O)(=O)c2ccc(NC(=O)c3ccccc3C)c3ccccc23)c2ccccc21 (stereo not drawn) [Compound 31, N-(4-(N-(1-acetyl-1,2,3,4-tetrahydroquinolin-4-yl)sulfamoyl)naphthalen-1-yl)-2-methylbenzamide] | 1080
7 | CCCC(=O)N1CCC(NS(=O)(=O)c2ccc(-c3nc4ccccc4[nH]3)cc2)CC1 [Compound 106, 4-(1H-benzo[d]imidazol-2-yl)-N-(1-butyrylpiperidin-4-yl)benzenesulfonamide] | 1140
8 | CCN(C)C(=O)C12CC(NS(=O)(=O)c3ccc(NC(=O)c4ccccc4C)c4ccccc34)(C1)C2 [Compound 64, N-ethyl-N-methyl-3-(4-(2-methylbenzamido)naph-thalene-1-sulfonamido)bicyclo [1.1.1]pentane-1-carboxamide] | > 10000
9 | O=S(=O)(NC1CCCCC1)c1ccc(-c2nc3ccccc3[nH]2)cc1 [Compound 108, 4-(1H-benzo[d]imidazol-2-yl)-N-cyclohexylbenzenesulfon-amide] | > 10000
10 | Cc1cc(S(=O)(=O)N[C@H](C)C2CCNCC2)ccc1NC(=O)c1cccs1 [Compound 210A, (R)-N-(2-methyl-4-(N-(1-(piperidin-4-yl)ethyl)sulfamoyl)phenyl)thiophene-2-carboxamide hydrochloride] | 161
11 | Cc1ccccc1C(=O)Nc1ccc(S(=O)(=O)N[C@H](C)C2CCN(C(=O)OC(C)(C)C)CC2)c(Cl)c1C [Compound 178, (R)-tert-butyl 4-(1-(2-chloro-3-methyl-4-(2-methylbenzmido)phen-ylsulfonamido)ethyl)pi-perridine-1-carboxylate] | 378
12 | Cc1ccccc1C(=O)Nc1ccc(S(=O)(=O)NC(C)C2CCCN(C(=O)[C@H](C)N)C2)c2ccccc12 (single isomer, unassigned) [Compound 158B] | 685
13 | COC(=O)CN1CCCCC1C(C)NS(=O)(=O)c1ccc(NC(=O)c2ccccc2C)c2ccccc12 (single isomer, unassigned) [Compound 70B, methyl 2-(2-(1-(4-(2-methylbenzamido)naph-thalene-1-sulfonamido)ethyl)piper-idin-1-yl)acetate] | > 10000
14 | Cc1cc(S(=O)(=O)N[C@H](C)C2CCN(C(=O)OC(C)(C)C)CC2)ccc1NC(=O)c1ccccc1C [Compound 160, (R)-tert-butyl 4-(1-(3-methyl-4-(2-methylbenzamido)phen-ylsulfonamido)ethyl)piper-idine-1-carboxylate] | > 10000
15 | Cc1cc(S(=O)(=O)N[C@H](C)C2CCNCC2)ccc1NC(=O)c1ccccc1 [Compound 166A, (R)-N-(2-methyl-4-(N-(1-(piperidin-4-yl)ethyl)sulfamoyl)phen-yl)benzamide hydrochloride] | 99
16 | Cc1ccccc1C(=O)Nc1c(C)cc(S(=O)(=O)N[C@H](C)C2CCNCC2)cc1Cl [Compound 180A, (R)-N-(2-chloro-6-methyl-4-(N-(1-(piperidin-4-yl)eth-yl)sulfamoyl)phen-yl)-2-methylbenzamide hydrochloride] | 2
17 | Cc1cc(S(=O)(=O)N[C@H](C)C2CCNCC2)ccc1NC1(c2ccccc2)COC1 [Compound 313, (R)-3-methyl-4-((3-phenyloxetan-3-yl)amino)-N-(1-(piperidin-4-yl)ethyl)benzene-sulfonamide] | 224

Further lines, results first:

Row | IC50 [nM] | SMILES
18 | 711 | Cc1ccccc1C(=O)Nc1ccc(S(=O)(=O)N[C@H](C)C2CCN(C(=O)OC(C)(C)C)CC2)c(F)c1C [Compound 176, (R)-tert-butyl 4-(1-(2-fluoro-3-methyl-4-(2-methylbenzamido)phen-ylsulfonamido)ethyl)pi-perridine-1-carboxylate]
19 | > 10000 | CCCC(=O)N1CCC(CNS(=O)(=O)c2ccc(NC(=O)c3ccccc3C)c3ccccc23)C1 (stereo not drawn) [Compound 15, N-(4-(N-((1-butyrylpyrrolidin-3-yl)methyl)sulfamoyl)naphthalen-1-yl)-2-methylbenzamide]
20 | 23 | Cc1ccccc1C(=O)Nc1ccc(S(=O)(=O)N[C@@H]2CCN3C(=O)CC[C@@H]3C2)c2ccccc12 [Compound 47, 2-methyl-N-(4-(N-((7R,8aR)-3-oxooctahydroindolizin-7-yl)sulfamoyl)naphthalen-1-yl)benzamide]
21 | > 10000 | CC(NS(=O)(=O)c1ccc2cnccc2c1)C1CC2CCC1CC2 (stereo not drawn) [Compound 139, N-(1-(bicyclo[2.2.2]octan-2-yl)ethyl)isoquinoline-6-sulfonamide]
22 | > 10000 | CC(=O)NC1CCc2cc(S(=O)(=O)NC(C)C3CCCCC3)ccc21 (stereo not drawn) [Compound 87, N-(5-(N-(1-cyclohexylethyl)sulfam-oyl)-2,3-dihydro-1H-inden-1-yl)acetamide]
23 | > 10000 | CCCN1CCN(c2cccc(C(=O)NS(=O)(=O)c3ccc(NC(=O)c4ccccc4C)c4ccccc34)c2)CC1 [Compound 11, 2-methyl-N-(4-(N-(3-(4-propylpiperazin-1-yl)benzoyl)sulfamoyl)naphthalen-1-yl)benzamide]
24 | > 10000 | CCCC(=O)N1CCCC(C(=O)NS(=O)(=O)c2ccc(NC(=O)c3ccccc3C)c3ccccc23)C1 (stereo not drawn) [Compound 9, 1-butyryl-N-((4-(2-methylbenzamido)naph-thalen-1-yl)sulfonyl)piperidine-3-carboxamide]
25 | > 100000 | Cc1cc(S(=O)(=O)NC(c2ccccc2)C2CCNCC2)ccc1NC(=O)c1ccccc1C (stereo not drawn) [Compound 227A, 2-methyl-N-(2-methyl-4-(N-(phenyl(piperidin-4-yl)methyl)sulfamoyl)phenyl)benzamide]
26 | 26 | Cc1ccccc1C(=O)Nc1ccc(S(=O)(=O)N[C@H](C)C2CCNCC2)cc1C1CC1 [Compound 198, (R)-N-(2-cyclopropyl-4-(N-(1-(piperidin-4-yl)ethyl)sulfamoyl)phenyl)-2-methylbenzamide]

Same assay, conditions: read-out: Tango Assay IC50, Inhibition of CCR8 Tango cell in vitro

Row | IC50 [nM] | SMILES
27 | 500 | CCCC(=O)N1CCCC(C(C)NS(=O)(=O)c2ccc(NC(=O)c3ccccc3C)c3ccccc23)C1 (stereo not drawn) [Compound 16, N-(4-(N-(1-(1-butyrylpiperidin-3-yl)ethyl)sulfamoyl)naph-thalen-1-yl)-2-methylbenzamide]
